Source: patent US20230406865A1, “CRYSTAL FORM OF FREE BASE OF INHIBITOR CONTAINING BICYCLIC RING DERIVATIVE AND PREPARATION METHOD AND APPLICATION OF CRYSTAL FORM” (SHANGHAI HANSOH BIOMEDICAL CO., LTD., priority 2020, published 2023)
pIC50: −log10 of the molar value.

Legend:
Ba/F3 KIF5B-RET cells = molecular target: T1, Ba/F3 KIF5B-RET cells (Homo sapiens, UniProt P07949); assay: Inhibition of proliferation of Ba/F3 KIF5B-RET cells (CellTiter-Glo); format: cell-based; conditions: 72 to 144 hours
T1 construct: fused on or other part: P33176 (Kinesin-1 heavy chain)
T1 sequence (P07949 whole entry, change not shown, the tested form may be a part): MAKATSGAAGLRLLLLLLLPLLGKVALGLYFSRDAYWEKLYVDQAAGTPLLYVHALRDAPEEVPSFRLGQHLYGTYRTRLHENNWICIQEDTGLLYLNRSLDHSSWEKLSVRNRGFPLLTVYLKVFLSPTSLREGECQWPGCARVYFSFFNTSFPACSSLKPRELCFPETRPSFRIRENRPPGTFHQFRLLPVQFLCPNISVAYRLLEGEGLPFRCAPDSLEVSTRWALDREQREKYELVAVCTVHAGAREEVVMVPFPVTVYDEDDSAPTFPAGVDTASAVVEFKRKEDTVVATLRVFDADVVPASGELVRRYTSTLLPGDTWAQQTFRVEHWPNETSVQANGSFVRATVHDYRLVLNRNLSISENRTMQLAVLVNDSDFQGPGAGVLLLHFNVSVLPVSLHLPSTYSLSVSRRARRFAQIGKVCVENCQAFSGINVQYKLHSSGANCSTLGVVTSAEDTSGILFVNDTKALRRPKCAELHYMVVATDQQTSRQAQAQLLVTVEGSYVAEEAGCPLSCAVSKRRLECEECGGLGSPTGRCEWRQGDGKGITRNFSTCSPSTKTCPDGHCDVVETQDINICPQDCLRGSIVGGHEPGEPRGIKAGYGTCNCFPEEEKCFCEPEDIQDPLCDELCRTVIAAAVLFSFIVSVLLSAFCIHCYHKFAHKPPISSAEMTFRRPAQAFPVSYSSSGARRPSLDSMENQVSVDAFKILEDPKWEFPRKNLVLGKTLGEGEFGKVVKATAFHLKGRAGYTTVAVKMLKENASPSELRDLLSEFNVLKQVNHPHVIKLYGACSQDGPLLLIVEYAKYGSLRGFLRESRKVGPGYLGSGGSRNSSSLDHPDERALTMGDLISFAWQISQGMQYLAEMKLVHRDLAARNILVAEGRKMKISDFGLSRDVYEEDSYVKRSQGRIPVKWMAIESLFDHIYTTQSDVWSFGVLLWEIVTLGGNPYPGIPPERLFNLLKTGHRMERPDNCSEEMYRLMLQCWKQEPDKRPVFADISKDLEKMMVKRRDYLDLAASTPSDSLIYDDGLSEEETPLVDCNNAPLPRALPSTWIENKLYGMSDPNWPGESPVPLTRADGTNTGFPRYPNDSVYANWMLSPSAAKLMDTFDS
Protocol: When Ba/F3 KIF5B-RET cells were cultured to the appropriate cell density, cells were collected, and the cells were adjusted to the appropriate cell concentration using complete medium, and the cell suspension was spread in a 96-well plate, 90 μL per well, and placed in the wall of a 37° C., 5% CO2 incubator overnight; compound solutions of different concentrations were prepared using DMSO and culture medium; a solvent control was set, and the compound solution was added to a 96-well plate with […] at 37° C. in a 5% CO2 incubator for 72 to 144 hours, CellTiter-Glo solution was added thereto and mixed well by shaking, incubated for 10 minutes in the dark, and read by BioTek Synergy H1 microplate reader.
The IC50 values were obtained by using the luminescence signal values to calculate the inhibition rate, the concentrations and the inhibition rates were fitted to a nonlinear regression curve using Graphpad Prism software.

[1] = system: TT cells (MTC, RET C634W); assay: Inhibition of proliferation of TT cells (CellTiter-Glo, 72 h); format: cell-based; conditions: Homo sapiens
Protocol: TT cells were purchased from the cell bank of the Chinese Academy of Sciences.
When TT cells were cultured to the appropriate fusion level, TT cells were collected, and the cells were adjusted to the appropriate cell concentration using complete medium, and the cell suspension was spread in a 96-well plate, 90 μL per well, and placed to the wall of a 37° C., 5% CO2 incubator overnight; and compound solutions of different concentrations were prepared using DMSO and culture medium; and a solvent control was set, the compound solution was added to a 96-well plate, 10 μL per well, and placed to the wall of a 37° C., 5% CO2 incubator for 72 hours; CellTiter-Glo solution was added thereto and the mixture was mixed well by shaking, incubated for 10 minutes in the dark, and read by BioTek Synergy H1 microplate reader.
The IC50 values were obtained by using luminescence signal values to calculate the inhibition rate, the concentration and the inhibition rate were fitted to a nonlinear regression curve using Graphpad Prism software.

KDR kinase = molecular target: T2, KDR kinase (Homo sapiens, UniProt P35968); assay: HTRF kinase activity inhibition, KDR; format: biochemical; conditions: for pIC50: HTRF, ATP at Km; for Ratio (KDR/RET): KDR IC50 / RET IC50
T2 construct: purchased Carna 08-191
T2 sequence (P35968 20-1356): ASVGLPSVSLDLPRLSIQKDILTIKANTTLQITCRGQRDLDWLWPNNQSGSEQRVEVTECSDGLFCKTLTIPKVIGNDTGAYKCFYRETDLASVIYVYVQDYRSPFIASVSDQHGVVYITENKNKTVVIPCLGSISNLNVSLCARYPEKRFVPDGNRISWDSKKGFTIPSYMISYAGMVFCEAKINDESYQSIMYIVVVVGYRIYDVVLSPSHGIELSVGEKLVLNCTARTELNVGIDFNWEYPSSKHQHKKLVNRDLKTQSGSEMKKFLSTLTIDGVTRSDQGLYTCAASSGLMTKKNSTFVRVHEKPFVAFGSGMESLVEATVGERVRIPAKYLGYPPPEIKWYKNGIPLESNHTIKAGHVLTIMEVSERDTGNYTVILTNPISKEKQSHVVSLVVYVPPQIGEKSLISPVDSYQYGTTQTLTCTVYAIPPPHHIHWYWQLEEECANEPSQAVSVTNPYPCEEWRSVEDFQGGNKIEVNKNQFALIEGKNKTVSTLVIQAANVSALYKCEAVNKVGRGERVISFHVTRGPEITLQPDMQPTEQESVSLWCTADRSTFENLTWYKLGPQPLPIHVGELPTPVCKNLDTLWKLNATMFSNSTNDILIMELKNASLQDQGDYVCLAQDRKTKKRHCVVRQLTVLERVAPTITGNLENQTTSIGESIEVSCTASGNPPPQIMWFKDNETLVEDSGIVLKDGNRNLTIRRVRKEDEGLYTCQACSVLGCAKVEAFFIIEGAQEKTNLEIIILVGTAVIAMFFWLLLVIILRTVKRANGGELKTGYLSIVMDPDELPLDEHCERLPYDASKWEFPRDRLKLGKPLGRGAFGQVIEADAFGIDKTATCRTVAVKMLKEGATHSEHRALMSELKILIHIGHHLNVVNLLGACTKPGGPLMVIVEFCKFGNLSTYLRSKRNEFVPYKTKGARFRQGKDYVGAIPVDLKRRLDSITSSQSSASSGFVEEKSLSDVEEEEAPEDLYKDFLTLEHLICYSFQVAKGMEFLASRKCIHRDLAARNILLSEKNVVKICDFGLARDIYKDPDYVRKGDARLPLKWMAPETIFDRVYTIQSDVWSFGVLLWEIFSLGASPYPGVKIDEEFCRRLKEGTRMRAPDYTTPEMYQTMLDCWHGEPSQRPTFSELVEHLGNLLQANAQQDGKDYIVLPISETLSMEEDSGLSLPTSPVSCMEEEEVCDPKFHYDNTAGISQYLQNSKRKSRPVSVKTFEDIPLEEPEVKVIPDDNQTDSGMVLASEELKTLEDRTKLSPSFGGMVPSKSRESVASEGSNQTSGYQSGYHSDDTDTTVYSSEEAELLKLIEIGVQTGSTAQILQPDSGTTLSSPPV
Summary of the method: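 Inhibition of KDR kinase activity measured by homogeneous time-resolved fluorescence with a tyrosine-kinase KinEASE substrate kit and ATP.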

[2] = Balb/C mouse pharmacokinetics, oral 5 mg/kg; format: in vivo, Balb/C mice; conditions: male, p.o. 5 mg/kg, plasma; for MRT: read-out: Average residence time MRT; for Cmax: read-out: Blood concentration Cmax; for AUC(0-t): read-out: Curve area AUC0-t; for AUC(0-inf): read-out: Curve area AUC0-∞; for half-life: read-out: Half-life t1/2 (converted); for Tmax: read-out: Peak time tmax
Protocol: The pharmacokinetic behavior of the following compound embodiments, administered orally at a dose of 5 mg/kg in plasma in mice, was studied using Balb/C mice as test animals.
Balb/C Mouse 6/embodiment, male, Shanghai Jiesijie Laboratory Animal Co., Ltd, Animal Production License No. (SCXK (Shanghai) 2013-0006 N0.311620400001794).
Balb/C mice, males; p.o. after overnight fasting, respectively, at a dose of 5 mg/kg, administered in a volume of 10 mL/kg.
0.5% CMC-Na (1% Tween80) was dissolved by ultrasound, and prepared into clear solution or uniform suspension.
Before and after administration, 0.1 mL of blood was collected from mice at 0, 0.5, 1, 2, 4, 6, 8 and 24 hours by orbital collection, placed in EDTA-K2 tubes, centrifuged at 6000 rpm at 4° C. for 6 minutes to separate plasma, and stored at −80° C.
2.5 Sample Handling: • 1) 40 μL of plasma sample was precipitated by adding 160 μL of acetonitrile, mixed and centrifuged at 3500×g for 5-20 minutes. • 2) 100 μL of the supernatant solution after treatment was taken to analyze the concentration of the test compound by LC/MS/MS.
2.6 Liquid Phase Analysis • Liquid phase conditions: Shimadzu LC-20AD pump • Mass spectrometry conditions: AB Sciex API 4000 mass spectrometer • Chromatographic column: phenomenex Gemiu 5 μM C18 50×4.6 mm • Mobile phase: Liquid A was 0.1% formic acid aqueous solution, liquid B was acetonitrile • Flow rate: 0.8 mL/min • Elution time: 0-4.0 minutes, the eluent was as follows:
The main pharmacokinetic parameters were calculated by WinNonlin 6.1 and the results of the mouse pharmacokinetic experiments were shown in Table 13 below.

RET kinase = molecular target: T3, RET kinase (Homo sapiens, UniProt P07949); assay: HTRF kinase activity inhibition, RET wild-type; format: biochemical; conditions: ATP at Km
T3 construct: purchased Carna 08-159
T3 sequence (P07949 29-1114): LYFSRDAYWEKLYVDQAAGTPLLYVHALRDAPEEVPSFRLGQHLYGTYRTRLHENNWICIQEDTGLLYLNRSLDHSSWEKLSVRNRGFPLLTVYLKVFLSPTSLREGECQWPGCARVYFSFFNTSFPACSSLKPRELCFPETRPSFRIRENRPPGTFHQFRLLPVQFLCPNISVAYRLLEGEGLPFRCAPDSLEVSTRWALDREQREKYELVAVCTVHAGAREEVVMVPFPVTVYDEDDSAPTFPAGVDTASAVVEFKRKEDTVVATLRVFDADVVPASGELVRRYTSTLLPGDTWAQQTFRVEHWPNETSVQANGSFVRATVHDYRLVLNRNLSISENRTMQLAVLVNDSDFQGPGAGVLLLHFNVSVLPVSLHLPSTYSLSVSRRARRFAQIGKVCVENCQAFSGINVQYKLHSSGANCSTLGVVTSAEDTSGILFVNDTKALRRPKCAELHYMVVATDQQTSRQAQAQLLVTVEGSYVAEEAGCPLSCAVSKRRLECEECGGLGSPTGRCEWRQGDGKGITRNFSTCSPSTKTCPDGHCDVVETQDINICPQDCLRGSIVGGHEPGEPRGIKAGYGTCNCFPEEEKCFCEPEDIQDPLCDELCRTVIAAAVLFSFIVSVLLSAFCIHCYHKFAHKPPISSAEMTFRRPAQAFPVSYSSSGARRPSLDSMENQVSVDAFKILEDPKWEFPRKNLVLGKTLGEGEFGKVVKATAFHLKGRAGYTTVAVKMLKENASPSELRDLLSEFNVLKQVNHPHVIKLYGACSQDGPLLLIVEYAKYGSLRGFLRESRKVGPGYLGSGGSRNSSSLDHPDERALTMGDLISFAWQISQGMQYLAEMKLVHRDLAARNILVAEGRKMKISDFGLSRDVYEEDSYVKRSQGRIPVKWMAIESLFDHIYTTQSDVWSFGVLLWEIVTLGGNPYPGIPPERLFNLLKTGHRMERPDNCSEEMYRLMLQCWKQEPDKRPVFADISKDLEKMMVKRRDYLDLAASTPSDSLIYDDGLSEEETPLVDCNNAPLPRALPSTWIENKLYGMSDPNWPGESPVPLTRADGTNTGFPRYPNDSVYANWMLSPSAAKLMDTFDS
Summary of the method: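 HTRF (KinEASE-TK) kinase assay with recombinant RET wild-type, RET V804M, RET V804L and KIF5B-RET enzymes plus ATP.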

| SMILES | pIC50 (Ba/F3 KIF5B-RET cells) | pIC50 [1] | also measured |
| --- | --- | --- | --- |
| [2H]C([2H])([2H])Oc1ccc(CN2C3CC2CN(c2ccc(-c4cc(C#CC(C)(C)O)cn5ncc(C#N)c45)cn2)C3)cn1 [Embodiment 25, 6-(3-Hydroxy-3-methylbut-1-yn-1-yl)-4-(6-(6-((6-(methoxy-d3)pyridin-3-yl)methyl)-3,6-diazabicyclo[3.1.1]heptan-3-yl)pyridin-3-yl)pyrazolo[1,5-a]pyridine-3-carbonitrile] | 7.87 | 7.82 |  |
| COc1ccc(CN2C3CC2CN(c2ccc(-c4cc(OCC56CC(CO)(C5)C6)cn5ncc(C#N)c45)cn2)C3)cn1 [Embodiment 45, 6-((3-(Hydroxymethyl)bicyclo[1.1.1]pentan-1-yl)methoxy)-4-(6-(6-((6-methoxypyridin-3-yl)methyl)-3,6-diazabicyclo[3.1.1]heptan-3-yl)pyridin-3-yl)pyrazolo[1,5-a]pyridine-3-carbonitrile] | 8.15 | 8.04 |  |
| COc1ccc(CN2C3CC2CN(c2ccc(-c4cc(OCC5(C#N)CCOCC5)cn5ncc(C#N)c45)cn2)C3)cn1 [Embodiment 59, 6-((4-Cyanotetrahydro-2H-pyran-4-yl)methoxy)-4-(6-(6-((6-methoxypyridin-3-yl)methyl)-3,6-diazabicyclo[3.1.1]heptan-3-yl)pyridin-3-yl)pyrazolo[1,5-a]pyridine-3-carbonitrile] | 7.47 |  | pIC50 (KDR kinase): 6.74; Ratio (KDR/RET) (KDR kinase): 317; MRT [2]: 4.27 h; Cmax [2]: 1330 ng/mL; AUC(0-t) [2]: 7340 ng·h/mL; AUC(0-inf) [2]: 7370 ng·h/mL; half-life [2]: 2.34 h; Tmax [2]: 0.5 h; pIC50 (RET kinase): 9.24 |
| COc1ncc(CN2C3CC2CN(c2ccc(-c4cc(C#C[C@@H](C)O)cn5ncc(C#N)c45)cn2)C3)cc1F [Embodiment 68, 4-(6-(6-((5-Fluoro-6-methoxypyridin-3-yl)methyl)-3,6-diazabicyclo[3.1.1]heptan-3-yl)pyridin-3-yl)-6-((R)-3-hydroxybut-1-yn-1-yl)pyrazolo[1,5-a]pyridine-3-carbonitrile] | 7.58 |  | pIC50 (KDR kinase): 7.72; Ratio (KDR/RET) (KDR kinase): 43; MRT [2]: 3.47 h; Cmax [2]: 1700 ng/mL; AUC(0-t) [2]: 7210 ng·h/mL; AUC(0-inf) [2]: 7220 ng·h/mL; half-life [2]: 1.73 h; Tmax [2]: 0.5 h; pIC50 (RET kinase): 9.36 |
| COc1ncc(CN2C3CC2CN(c2ccc(-c4cc(OCC56CC(CO)(C5)C6)cn5ncc(C#N)c45)cn2)C3)cc1F [Embodiment 71, 4-(6-(6-((5-Fluoro-6-methoxypyridin-3-yl)methyl)-3,6-diazabicyclo[3.1.1]heptan-3-yl)pyridin-3-yl)-6-((3-(hydroxymethyl)bicyclo[1.1.1]pentan-1-yl)methoxy)pyrazolo[1,5-a]pyridine-3-carbonitrile] | 8.25 | 8.06 |  |
| COc1ncc(CN2C3CC2CN(c2ccc(-c4cc(N5CC(C)(O)C5)cn5ncc(C#N)c45)cn2)C3)cc1F [Embodiment 73, 4-(6-(6-((5-Fluoro-6-methoxypyridin-3-yl)methyl)-3,6-diazabicyclo[3.1.1]heptan-3-yl)pyridin-3-yl)-6-(3-hydroxy-3-methylazetidin-1-yl)pyrazolo[1,5-a]pyridine-3-carbonitrile] | 7.92 | 8.23 |  |
| COCC(C)(O)C#Cc1cc(-c2ccc(N3CC4CC(C3)N4Cc3ccc(OC)nc3)nc2)c2c(C#N)cnn2c1 (stereo not shown) [Embodiment 75, 6-(3-Hydroxy-4-methoxy-3-methylbut-1-yn-1-yl)-4-(6-(6-((6-methoxypyridin-3-yl)methyl)-3,6-diazabicyclo[3.1.1]heptan-3-yl)pyridin-3-yl)pyrazolo[1,5-a]pyridine-3-carbonitrile] | 7.46 | 7.61 |  |
| COc1ncc(CN2C3CC2CN(c2ccc(-c4cc(N5CC(C)(C#N)C5)cn5ncc(C#N)c45)cn2)C3)cc1F [Embodiment 76, 6-(3-Cyano-3-methylazetidin-1-yl)-4-(6-(6-((5-fluoro-6-methoxypyridin-3-yl)methyl)-3,6-diazabicyclo[3.1.1]heptan-3-yl)pyridin-3-yl)pyrazolo[1,5-a]pyridine-3-carbonitrile] | 8.22 | 8.46 |  |
| COc1ccc(CN2C3CC2CN(c2ccc(-c4cc(C#CC5(O)CCOCC5)cn5ncc(C#N)c45)cn2)C3)cn1 [Embodiment 78, 6-((4-Hydroxytetrahydro-2H-pyran-4-yl)ethynyl)-4-(6-(6-((6-methoxypyridin-3-yl)methyl)-3,6-diazabicyclo[3.1.1]heptan-3-yl)pyridin-3-yl)pyrazolo[1,5-a]pyridine-3-carbonitrile] | 7.81 | 7.86 |  |
| COc1ncc(CN2C3CC2CN(c2ccc(-c4cc(C#CC5(O)CCOCC5)cn5ncc(C#N)c45)cn2)C3)cc1F [Embodiment 79, 4-(6-(6-((5-Fluoro-6-methoxypyridin-3-yl)methyl)-3,6-diazabicyclo[3.1.1]heptan-3-yl)pyridin-3-yl)-6-((4-hydroxytetrahydro-2H-pyran-4-yl)ethynyl)pyrazolo[1,5-a]pyridine-3-carbonitrile] | 7.86 | 7.98 |  |
| COc1ccc(CN2C3CC2CN(c2ccc(-c4cc(C#CC5(O)COC5)cn5ncc(C#N)c45)cn2)C3)cn1 [Embodiment 80, 6-((3-Hydroxyoxetan-3-yl)ethynyl)-4-(6-(6-((6-methoxypyridin-3-yl)methyl)-3,6-diazabicyclo[3.1.1]heptan-3-yl)pyridin-3-yl)pyrazolo[1,5-a]pyridine-3-carbonitrile] | 7.62 | 7.76 |  |
| COc1ncc(CN2C3CC2CN(c2ccc(-c4cc(C#CC5(O)COC5)cn5ncc(C#N)c45)cn2)C3)cc1F [Embodiment 81, 4-(6-(6-((5-Fluoro-6-methoxypyridin-3-yl)methyl)-3,6-diazabicyclo[3.1.1]heptan-3-yl)pyridin-3-yl)-6-((3-hydroxyoxetan-3-yl)ethynyl)pyrazolo[1,5-a]pyridine-3-carbonitrile] | 7.77 | 7.86 |  |
| COc1ccc(CN2C3CC2CN(c2ccc(-c4cc(C#CC5(O)CCC5)cn5ncc(C#N)c45)cn2)C3)cn1 [Embodiment 82, 6-((1-Hydroxycyclobutyl)ethynyl)-4-(6-(6-((6-methoxypyridin-3-yl)methyl)-3,6-diazabicyclo[3.1.1]heptan-3-yl)pyridin-3-yl)pyrazolo[1,5-a]pyridine-3-carbonitrile] | 7.66 | 7.75 |  |
| CC(C)(N)C#Cc1cc(-c2ccc(N3CCC(C)(NC(=O)c4ncccc4Cl)CC3)nc2)c2c(C#N)cnn2c1 [Embodiment 86, N-(1-(5-(6-(3-Amino-3-methylbut-1-yn-1-yl)-3-cyanopyrazolo[1,5-a]pyridin-4-yl)pyridin-2-yl)-4-methylpiperidin-4-yl)-3-chloropicolinamide] | 7.81 | 7.84 |  |
| Cc1ccc(F)cc1C(=O)NC1(C)CCN(c2ccc(-c3cc(C#CC(C)(C)N)cn4ncc(C#N)c34)cn2)CC1 [Embodiment 87, N-(1-(5-(6-(3-amino-3-methylbut-1-yn-1-yl)-3-cyanopyrazolo[1,5-a]pyridin-4-yl)pyridin-2-yl)-4-methylpiperidin-4-yl)-5-fluoro-2-methylbenzamide] | 7.73 | 7.63 |  |
